Test results taken from patent US20220265657A1, “ADMINISTRATION METHOD AND DOSAGE REGIMEN FOR TREATMENT OF NEURODEGENERATIVE DISEASES USING TRAMETINIB AND MARKERS” (GENUV INC., priority 2019, published 2022).
Read-outs that look alike come from different tables or passages of the source.

How the values were obtained:
MEK1/2 = test: Western blot of pERKs and ERKs in whole brain lysates of normal mice; type: in vivo; conditions: 0.1 mg/kg/day oral
Description: (§1) Trametinib treatment: Trametinib (Medchemexpress, Monmouth Junction, N.J.) was micronized and suspended in the vehicle containing 5% mannitol, 1.5% hydroxypropyl methylcellulose and 0.2% sodium lauryl sulfate. For pharmacokinetic analysis, 0.05, 0.2 and 0.8 mg/kg of trametinib were orally administered to 7-week-old normal mice (ICR, n=5 per group) as a single administration. […] For studies on the change in pERK expression in normal mice and whole cell RNA sequencing study, 0.1 mg/kg/day of trametinib (in 4% DMSO+96% corn oil) was orally administered to 6-week old C57BL/6 mice (n=3 per group). Mice were sacrificed after 1, 2, 3, or 4 weeks of administration. 5XFAD mice (male, n=7˜10 per group) were divided into vehicle and trametinib treated groups. 12-month old mice received vehicle or 0.1 mg/kg of trametinib for 1 month by oral gavage once a day (These mice are referred to as “13-month old 5XFAD mice” in the Examples). […] Blood was obtained after completion of treatment.
Lysates were centrifuged at 13,000 rpm for 20 min at 4° C., and the protein content in the supernatant was determined using the Bradford assay (Bio-rad, Hercules, Calif.). For subcellular fractionation, cells were lysed with lysis buffer (250 mM Sucrose, 20 mM HEPES, pH 7.4, 10 mM KCl, 1.5 mM MgCl2, 1 mM EGTA, 1 mM EDTA, 1 mM DTT) containing protease inhibitor for 30 min on ice, followed by centrifugation at 720 g for 5 min at 4° C. Supernatants were centrifuged at 15,000 rpm for 10 min at 4° C., and the resulting supernatant was used as the cytosol fraction. After centrifugation at 720 g for 5 min, pellets were washed with lysis buffer and dissolved in nuclear lysis buffer (50 mM Tris HCl, pH 8.0, 150 mM NaCl, 1% NP40, 0.5% sodium deoxycholate, 0.1% SDS, 10% glycerol) as the nuclear fraction. Protein from each sample was subjected to 8%˜15% SDS-PAGE, and the resolved proteins were transferred to nitrocellulose or polyvinylidene fluoride membrane. The membranes were blocked with 5% nonfat milk powder in Tris-buffered saline/Tween 20 (TBST) for 1 h at room temperature, then incubated with anti-phospho-ERK (Cell signaling), anti-ERK (Cell signaling), anti-LAMP1 (Abcam), anti-LC3 (Cell signaling), anti-cathepsin B (Cell signaling), anti-p62 (Cell signaling), anti-p62 (5114, Cell signaling), anti-phospho-mTOR (5536, Cell signaling), anti-mTOR (2983, Cell signaling), anti-phospho-ULK1 (14202, Cell signaling), anti-ULK1 (8054, Cell signaling), anti-TFEB (852501, Biolegend), and anti-GAPDH (Cell signaling) overnight at 4° C. After washing, membranes were incubated with horseradish peroxidase-conjugated goat anti-rabbit IgG antibody (Thermo) or goat anti-rat IgG antibody (Thermo) for 2 h at room temperature. […] The detected signals were quantified using a LAS-4000 system (Fuji Film, Tokyo, Japan).

5XFAD mice [1] = test: Western blot of brain cortex lysates; type: in vivo
Description: as §1
Lysates were centrifuged at 13,000 rpm for 20 min at 4° C., and the protein content in the supernatant was determined using the Bradford assay (Bio-rad, Hercules, Calif.). For subcellular fractionation, cells were lysed with lysis buffer (250 mM Sucrose, 20 mM HEPES, pH 7.4, 10 mM KCl, 1.5 mM MgCl2, 1 mM EGTA, 1 mM EDTA, 1 mM DTT) containing protease inhibitor for 30 min on ice, followed by centrifugation at 720 g for 5 min at 4° C. Supernatants were centrifuged at 15,000 rpm for 10 min at 4° C., and the resulting supernatant was used as the cytosol fraction. After centrifugation at 720 g for 5 min, pellets were washed with lysis buffer and dissolved in nuclear lysis buffer (50 mM Tris HCl, pH 8.0, 150 mM NaCl, 1% NP40, 0.5% sodium deoxycholate, 0.1% SDS, 10% glycerol) as the nuclear fraction. Protein from each sample was subjected to 8%˜15% SDS-PAGE, and the resolved proteins were transferred to nitrocellulose or polyvinylidene fluoride membrane. […] The detected signals were quantified using a LAS-4000 system (Fuji Film, Tokyo, Japan).

primary cortical neurons = test: Dendritic spine formation in primary cortical neurons; type: cell-based, ICR mice
Description: Cell culture: SH-SY5Y neuroblastoma cells were cultured at 37° C., 5% CO2., in Dulbecco's Modified Eagle Medium/Ham's F-12 nutrient mixture (DMEM/F12) (Invitrogen, Carlsbad, Calif.) supplemented with 10% heat-inactivated fetal bovine serum containing 100 units/ml penicillin, 100 μg/ml streptomycin. Primary cortical neuron cultures were derived from embryo day 18 (E18) from ICR mice. The dissociated cells were plated on glass cover slips coated with poly-D-lysine in Neurobasal medium supplemented with 2% B27 (Invitrogen), 100 units/ml penicillin, 100 μg/ml streptomycin, and 2 mM L-glutamine. Primary NSCs from normal mice were isolated from the subventricular zone (SVZ) of 8 week-old C57BL/6 mice brain. NSCs from adult Tg2576 mice brain were obtained from Seoul National University Hospital. The neurospheres were cultured as previously described (M. Y. Kim, B. S. Moon, K. Y. Choi, Isolation and maintenance of cortical neural progenitor cells in vitro. Methods Mol Biol 1018, 3-10 (2013)). For neurosphere culture from normal mice, the cells were dissociated from brain tissue and grown in N2 medium in 25 cm^2 flasks (SPL, Gyeonggi-do, Korea) in suspension. bFGF (20 ng/ml, Peprotech, Princeton, N.J.) and human EGF (20 ng/ml, Peprotech) were added to the media to allow the cells to form neurospheres. For analyses, NSCs were cultured as a monolayer. For differentiation of NSCs, the neurospheres were dissociated with TrypLE (Invitrogen), plated on 15 μg/ml poly-L-ornithine-(Sigma-Aldrich, St. Louis, Mo.) and 10 μg/ml fibronectin (Gibco)-coated plates, and cultured in bFGF- and EGF-depleted N2 medium for 2 days. For neurosphere culture from Tg2576 mice, the cells were grown in DMEM/F12 supplemented with B27 supplements in 75 cm^2 flasks (SPL) in suspension. bFGF (10 ng/ml) and human EGF (10 ng/ml) were added to the media to allow the cells to form neurospheres. […]

5XFAD mice [2] = conditions: for decrease of plasma cathepsin B level compared to vehicle treated 5XFAD mice: 8-month-old 5XFAD mice, 3 months oral

CC(=O)Nc1cccc(-n2c(=O)n(C3CC3)c(=O)c3c(Nc4ccc(I)cc4F)n(C)c(=O)c(C)c32)c1 [trametinib]
decrease of p-ERKs/ERKs ratio compared to vehicle treated group (MEK1/2; 1 week administration): 22.5%
decrease of p-ERKs/ERKs ratio compared to vehicle treated group (MEK1/2; 2 week administration): 33.7%
decrease of p-ERKs/ERKs ratio compared to vehicle treated group (MEK1/2; 3 week administration): 50%
decrease of p-ERKs/ERKs ratio compared to vehicle treated group (MEK1/2; 4 week administration): 45.6%
autophagosome marker LC3-II level (5XFAD mice [1]; 8-month old 5XFAD mice brain): further increased
level of mature cathepsin B (5XFAD mice [1]; 8-month old 5XFAD mice brain): seen to increase
expression of presynaptic marker synaptophysin and postsynaptic marker PSD-95 (5XFAD mice [1]; brain cortex lysates of 5XFAD mice): Increased expression
increase in number of dendritic spines compared to vehicle treated group (primary cortical neurons; 100 nM): 24%
increase in number of dendritic spines compared to Aβ1-42 treated alone group (primary cortical neurons; Aβ1-42 oligomer-induced neurotoxic conditions): 80%
decrease of plasma cathepsin B level compared to vehicle treated 5XFAD mice (5XFAD mice [2]; 0.05 mg/kg/day): 56.16%
decrease of plasma cathepsin B level compared to vehicle treated 5XFAD mice (5XFAD mice [2]; 0.1 mg/kg/day): 99.2%
plasma cathepsin B level compared to 5XFAD-vehicle group (5XFAD mice [2]; 13-month-old 5XFAD mice, 0.1 mg/kg/day, 1 month oral): decreasing trend
